# Data taken from article PMC6701825, “Antiproliferative and Antimigratory Effects of a Novel YAP–TEAD Interaction Inhibitor Identified Using in Silico Molecular Docking” (Journal of Medicinal Chemistry, 2019).
# Legend:
# [1] = target: T1, recombinant TEAD1 (residues 194-411) (Homo sapiens, UniProt P28347); experiment: Saturation transfer difference (STD) NMR binding to TEAD1; settings: 2 mM CPD3.1, approximately 20 μM TEAD1
# T1 construct: TEAD1 protein (residues 194–411) was prepared by solution cleavage of the GST tag; GST (N, cleaved yes); made in house; host or cells: SoluBL21 Escherichia coli
# Method: Figure 6 Saturation transfer difference (STD) NMR analysis of compound 3.1 binding to TEAD1. Saturation-Transfer Difference (STD) NMR spectra showing the binding of CPD3.1 to recombinant TEAD1. (A) reference 1H NMR spectra of a mixture of CPD3.1 and TEAD1. (B) and (C) show the STD spectra of CPD3.1 in the absence and presence of TEAD1. The asterisk indicates buffer components or impurities in the sample. The three spectra were recorded in PBS made up in 40% H2O/60% D2O acquired at 700 MHz. The concentration of CPD3.1 was 2 mM, whereas the final concentration of TEAD1 was approximately 20 μM.
# Binding of compounds to human TEAD was performed using STD NMR analysis. Briefly, TEAD1 protein (residues 194–411) was prepared by solution cleavage of the GST tag from recombinant GST–TEAD1 (194–411). GST–TEAD1 protein was eluted from glutathione beads by 40 mM reduced glutathione. GST tag was removed by incubation with PreScission protease (Sigma-Aldrich) at 4 °C for 18 h. Glutathione was removed by dialysis against 1000 volumes of 1× PBS at 4 °C for 4 h. Free GST protein was removed by incubation with glutathione resin. All NMR spectroscopy experiments were performed on a Bruker Avance III HD 700 MHz spectrometer equipped with a 1.7 mm inverse triple-resonance microcryocoil probe. NMR samples were prepared in 40 μL with PBS pH 7.4 in 60% D2O (uncorrected for D2O). […]
# [2] = target: T2, myc-TEAD1:GFP-YAP complexes (Homo sapiens, UniProt P28347); experiment: Co-immunoprecipitation of myc-TEAD1 and GFP-YAP; assay type: binding; settings: 200 μM CPD3
# T2 construct: #17843 (GFP-YAP1); host or cells: HeLa
# Method: Figure 1 BUDE screening-identified compound 3 for TEAD inhibition. (A) HeLa cells were stably transduced with a lentiviral viral vector containing 8×TEAD-secreted nanoluciferase reporter gene (TEAD-NLUC). Cells were transfected with non-targeting siRNA (siNEG), siRNA targeting YAP (siYAP), control adenoviral vector or an adenovirus expression constitutively active YAPS127A (Ad:YAP). Culture media were conditioned for 6 h and assayed for secreted nanoluciferase activity (n = 3). (B) HeLa cells stably transduced with TEAD-NLUC were treated with 100 μM of indicated compound for 6 h. Cell conditioned media were assayed for nanoluciferase activity (n = 3). […] (D) Recombinant GST-TEAD1 protein bound to glutathione resin was incubated with 200 μM of the indicated compounds and HEK293 cell lysate containing endogenous YAP protein for 18 h at 4 °C. The resin was washed, and bound YAP eluted and quantified by Western blotting (n = 2). […] Co-immunoprecipitated YAP or TEAD was quantified by Western blotting. […]
# HeLa cells were transiently transfected with either pRK5-myc-TEAD1 (Addgene #33109) or pEGFP-C3-YAP1 (Addgene #17843). […] Following washing, immunoprecipitated proteins were eluted by boiling in sodium dodecyl sulfate (SDS) buffer (50 mM Tris pH 6.8, 20% glycerol, 2% SDS) and analyzed by Western blotting.
# [3] = target: T3, binding of endogenous YAP protein to recombinant GST-TEAD1 (Homo sapiens, UniProt P28347); experiment: In vitro GST-TEAD1-YAP interaction (pull-down) assay; settings: 200 μM compound, HEK293 lysate, 18 h at 4 °C, Western blot
# T3 construct: human TEAD1 (corresponding to residues 194–411); made in house; host or cells: SoluBL21 Escherichia coli (GST-TEAD1); HEK293 lysate (endogenous YAP)
# From the text: We next tested the ability of these four compounds to inhibit the binding of endogenous YAP protein present in HEK293 whole cell lysate to recombinant glutathione S-transferase (GST)–TEAD1 protein immobilized on glutathione resin beads. […] Inhibition of YAP binding to TEAD1 in the presence of CPD3 was further confirmed using co-immunoprecipitation assays using mammalian cell lysates prepared from HeLa expressing myc-TEAD1 and GFP–YAP. […] We next set up a 96-well plate-based YAP–TEAD interaction assay to determine the IC50 of the inhibition of the YAP–TEAD complex by CPD3.
# The DNA fragment encoding human TEAD1 (corresponding to residues 194–411) was amplified by polymerase chain reaction (PCR) and cloned into the BamH1 and EcoR1 sites of vector pGEX-6P1, in frame with the terminal GST tag. GST–TEAD1 fusion protein expression was induced in SoluBL21s Escherichia coli by culture at 25 °C in the presence of 0.2 mM IPTG for 18 h. […] Bound proteins were eluted by boiling in Laemmli sample buffer and YAP and GST–TEAD levels quantified by Western blotting with an anti-YAP antibody (Cell Signaling; #4912) and an anti-GST antibody (Cell Signaling; #5475S).
# T2 sequence (P28347 whole entry, one chain of several): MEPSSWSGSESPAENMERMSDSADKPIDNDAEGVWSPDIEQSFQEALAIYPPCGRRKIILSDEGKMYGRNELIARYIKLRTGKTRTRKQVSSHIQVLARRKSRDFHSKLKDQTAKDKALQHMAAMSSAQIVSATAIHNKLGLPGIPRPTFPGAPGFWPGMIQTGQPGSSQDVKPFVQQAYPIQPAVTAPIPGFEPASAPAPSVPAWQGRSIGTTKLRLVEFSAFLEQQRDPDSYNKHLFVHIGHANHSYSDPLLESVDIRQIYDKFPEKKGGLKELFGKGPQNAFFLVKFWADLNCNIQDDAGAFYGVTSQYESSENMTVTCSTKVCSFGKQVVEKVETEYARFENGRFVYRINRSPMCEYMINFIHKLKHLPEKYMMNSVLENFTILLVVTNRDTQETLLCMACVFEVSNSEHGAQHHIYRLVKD
# T1 sequence (P28347 209-426): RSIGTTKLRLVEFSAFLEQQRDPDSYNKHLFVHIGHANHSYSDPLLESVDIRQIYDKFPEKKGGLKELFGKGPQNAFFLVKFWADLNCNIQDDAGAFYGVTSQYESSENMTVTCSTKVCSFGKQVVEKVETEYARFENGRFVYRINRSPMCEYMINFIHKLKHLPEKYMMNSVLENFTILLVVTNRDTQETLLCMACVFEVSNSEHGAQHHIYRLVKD
# T3 sequence (P28347 209-426): as above
smiles,measurement,setting,value
Cc1ccc2c(c1)c1c3n2CCNC3CCC1 (stereo not shown) [CPD3.1],binding to purified recombinant TEAD protein (STD NMR),[1],confirmed
Cc1ccc2c(c1)c1c3n2CCN(CC(O)CN2CCN(C(=O)c4ccco4)CC2)C3CCC1 (stereo not shown) [CPD3],binding of GFP-YAP to immunoprecipitated myc-TEAD1 (myc-Trap co-IP),[2],inhibited binding of GFP–YAP
same,binding of myc-TEAD1 to affinity-purified GFP-YAP (GFP-Trap co-IP),[2],inhibited binding of myc-TEAD1
same,inhibition of binding of YAP protein to GST-TEAD1,[3],inhibit the binding of YAP protein
